The values below are quoted from earlier work in patent US8969363B2, “Heterocyclic compounds and uses thereof” (Infinity Pharmaceuticals, Inc., priority 2011, dated 2015).

One data set deals with NZB/W F1 mice. Conditions: prophylactic and therapeutic model; cited from earlier work.
Data set [1] deals with p190 transduced leukemic cells in mice. Conditions: about 70 mg/kg twice daily; cited from earlier work.

For the molecule `CC(C)C[C@H](NC(=O)[C@H](Cc1ccccc1)NC(=O)c1cnccn1)B(O)O` [Bortezimib, bortezomib], the “disease in the NZB/W model” value with NZB/W F1 mice is on record as “effective at blocking disease in the NZB/W model”.
As to `Cc1ccc(NC(=O)c2ccc(CN3CCN(C)CC3)cc2)cc1Nc1nccc(-c2cccnc2)n1` [imatinib], the leukemogenesis result in data set [1] is on record as “delay but not cure leukemogenesis”.
